One block for each molecule: values may come before it.
Assays:
Type in all cases: physicochemical
[1] = Hygroscopicity: water content by Karl Fischer titration after exposure to 99% RH at 25° C.
Description: On the other hand, the hygroscopicity of the high melting point Carboprost Tromethamine crystal prepared from Example 10 (Method A) and the low melting point Carboprost Tromethamine crystal prepared from Example 10 (Method B) was measured. The samples were placed in glass vial with 99% RH at 25° C. for 3 hours, and the water content of the samples were measured by Karl Fischer titration, as shown in Table 6.

[2] = Stability of Carboprost Tromethamine crystal on storage at 25° C./60% RH and 5° C. (HPLC purity and impurities)
Text: (§1) The high melting point Carboprost Tromethamine Crystal is very stable at room temperature, even at higher temperature, so that the formation of degradation impurities can be effectively avoided.

[3] = Stability of Carboprost Tromethamine crystal at 80° C. (HPLC purity and impurities)
Text: as §1

- Water Content (%) ([1]; 25° C./99% RH/1 h): 1.509%
- Water Content (%) ([1]; 25° C./99% RH/2 h): 3.354%
- Water Content (%) ([1]; 25° C./99% RH/3 h): 5.881%
- Rate of water absorption (in words) ([1]; 99% RH at 25° C. for 3 hours, compared to the low melting point crystal): relatively low rate of water absorption
- Water Content (%) ([1]; Original): 0.3657%
- 15-epi ([2]; 5° C., 1 month): 0.28%
- Purity ([2]; 5° C., 1 month): 99.72%
- Total Impurities ([2]; 5° C., 1 month): 0.28%
- 15-epi ([2]; 5° C., 12 months): 0.25%
- Purity ([2]; 5° C., 12 months): 99.75%
- Total Impurities ([2]; 5° C., 12 months): 0.25%
- 15-epi ([2]; 5° C., 18 months): 0.25%
- Purity ([2]; 5° C., 18 months): 99.75%
- Total Impurities ([2]; 5° C., 18 months): 0.25%
- 15(R)-epimer ([2]; 25° C./60% RH, 1 month): 0.27%
- Purity ([2]; 25° C./60% RH, 1 month): 99.71%
- Total Impurities ([2]; 25° C./60% RH, 1 month): 0.29%
- 15(R)-epimer ([2]; 25° C./60% RH, 6 months): 0.25%
- Purity ([2]; 25° C./60% RH, 6 months): 99.75%
- Total Impurities ([2]; 25° C./60% RH, 6 months): 0.25%
- 15(R)-epimer ([2]; Control): 0.25%
- Purity ([2]; Control): 99.75%
- Total Impurities ([2]; Control): 0.25%
- Stability (in words) ([2]; at room temperature, even at higher temperature): very stable
- Stability (in words) ([2]; treated at 20° C. for 6 months, 5° C. for 18 months, and 80° C. for 3 days): very stable
- Stability (in words) ([2]; treated at 20° C. for 6 months, PC for 18 months, and 80° C. for 3 days): stable
- 15-epi ([3]; 80° C., 1 days): 0.20%
- Purity ([3]; 80° C., 1 days): 99.79%
- Total Impurities ([3]; 80° C., 1 days): 0.21%
- 15-epi ([3]; 80° C., 3 days): 0.21%
- Purity ([3]; 80° C., 3 days): 99.78%
- Total Impurities ([3]; 80° C., 3 days): 0.22%
- 15-epi ([3]; Control): 0.21%
- Purity ([3]; Control): 99.79%
- Total Impurities ([3]; Control): 0.21%
SMILES: CCCCC[C@](C)(O)/C=C/[C@@H]1[C@@H](C/C=C\CCCC(=O)O)[C@@H](O)C[C@H]1O [Example 10 (Method A), 2-amino-2-(hydroxymethyl)propane-1,3-diol; (Z)-7-((1R,2R,3R,5S)-3,5-dihydroxy-2-((S,E)-3-hydroxy-3-methyloct-1-en-1-yl)cyclopentyl)hept-5-enoate]

- Water Content (%) ([1]; 25° C./99% RH/1 h): 2.236%
- Water Content (%) ([1]; 25° C./99% RH/2 h): 5.45%
- Water Content (%) ([1]; 25° C./99% RH/3 h): 7.513%
- Water Content (%) ([1]; Original): 0.3303%
SMILES: CCCCC[C@](C)(O)/C=C/[C@@H]1[C@@H](C/C=C\CCCC(=O)O)[C@@H](O)C[C@H]1O [Example 10 (Method B), 2-amino-2-(hydroxymethyl)propane-1,3-diol; (Z)-7-((1R,2R,3R,5S)-3,5-dihydroxy-2-((S,E)-3-hydroxy-3-methyloct-1-en-1-yl)cyclopentyl)hept-5-enoate, reference compound]
